Assay results taken from patent US12116597B2, “Autophagy as a therapeutic target for intracranial aneurysm” (THE BOARD OF REGENTS OF THE UNIVERSITY OF TEXAS SYSTEM, priority 2022, dated 2024).

System: Thsd1-deficient zebrafish
Assay: Intracranial hemorrhage incidence in thsd1-MO zebrafish embryos treated with autophagy inhibitors
Format: in vivo
Details: thsd1-MO injected zebrafish embryos; added to embryo water at 1 dpf for 24 hours; 3-MA 10 mM, wortmannin 50 nM, verteporfin 1 uM; FIG. 11
Protocol: Anti-sense morpholinos against thsd1, atg5 or talin was injected into one-cell stage zebrafish singly or in combination to silence the gene accordingly. At day 2 to day 3, embryos will be checked under regular optical microscope. Embryos with intracranial hemorrhages will be counted and imaged by Olympus microscope.
To test the hypothesis that autophagy inhibition could treat intracranial hemorrhage in-vivo 80-120 different zebrafish animals genetically engineered as described in Table 5 were treated with three distinct autophagy inhibitors, namely, 3-MA, wortmannin, or verteporfin. Control (DMSO) or other known autophagy inhibitors including 3-MA (10 mM), wortmannin (50 nM), and verteporfin (1 uM) were added to embryo water at 1 dpf for 24 hours. All embryos were injected by thsd1-MO and the hemorrhagic incidence was counted under microscope. For each injection, around 80-120 embryos were injected. *p<0.05, **p<0.01, n.s. means not significant.
After significant effort in contacting individuals and sequencing the families shown in FIG. 1A, the present disclosure first identified THSD1 as a gene associated with sub-cranial hemorrhage. In specific cases, a single codon substitution was identified as responsible for the phenotype L5F, R460W, E466G, G600E, P639L, T653I, or S775P. […]

Molecule	intracranial hemorrhage (hemorrhagic incidence counted under microscope)
Cn1cnc(N)c2ncnc1-2 [3-MA, 3-Methyladenine]	rescued intracranial hemorrhage
Verteporfin	rescued intracranial hemorrhage
